Measured values as given in US5441941A, “1,2-dihydroellipticines with activity against CNS specific cancer” (The United States of America as represented by the …, priority 1993, dated 1995).

Columns and labels:
SNB-75 = assay: NCI in vitro screen, SRB percent growth, CNS Cancer
UO-31 = assay: NCI in vitro screen, SRB percent growth, Renal Cancer
CAKI-1 = assay: as above
SW-620 = assay: cells; conditions: Homo sapiens
NCI-H23 = assay: NCI in vitro screen, SRB percent growth, Non-Small Cell Lung Cancer
NCI-H460 = assay: as above
SK-MEL-5 = assay: NCI in vitro screen, SRB percent growth, Melanoma
SNB-19 = assay: NCI in vitro screen, SRB percent growth, CNS Cancer
LXFL 529 = assay: cells; conditions: Homo sapiens
HT29 = assay: NCI in vitro screen, SRB percent growth, Colon Cancer
SF-295 = assay: NCI in vitro screen, SRB percent growth, CNS Cancer
MALME-3M = assay: NCI in vitro screen, SRB percent growth, Melanoma
SK-MEL-28 = assay: NCI in vitro screen, SRB percent growth, Melanoma
SNB-78 = assay: NCI in vitro screen, SRB percent growth, CNS Cancer
HCT-15 = assay: NCI in vitro screen, SRB percent growth, Colon Cancer
Human tumor cell lines = assay: NCI in vitro screen, overall result; conditions: Tables I and II
SK-MEL-2 = assay: NCI in vitro screen, SRB percent growth, Melanoma
[1] = Log10 Concentration -4.0, 100 µM
[2] = Log10 Concentration -7.0, 0.1 µM
[3] = SW-620, read-out: Percent Growth
[4] = LXFL 529, read-out: Percent Growth

COc1ccc2[nH]c3c(C)c4c(c(C)c3c2c1)CN(C)C=C4 [Formula VII]
Percent Growth (SNB-75; [1]): -58%
Percent Growth (SNB-75; Log10 Concentration -5.0): -78%
Percent Growth (SNB-75; Log10 Concentration -6.0, 1 µM): -53%
Percent Growth (SNB-75; [2]): 86%
Percent Growth (SNB-75; Log10 Concentration -8.0): 126%
TGI (SNB-75; PG=0): 0.416 µM
CC50 (SNB-75; read-out: LC-50, PG=-50): 0.953 µM
Percent Growth (UO-31; [1]): 10%
Percent Growth (UO-31; Log10 Concentration -5.0): 83%
Percent Growth (UO-31; Log10 Concentration -6.0, 1 µM): 101%
Percent Growth (UO-31; [2]): 112%
Percent Growth (UO-31; Log10 Concentration -8.0): 119%
TGI (UO-31; PG=0): > 100 µM
GI50 (UO-31; PG=+50): 28.4 µM
CC50 (UO-31; read-out: LC-50, PG=-50): > 100 µM
Percent Growth (CAKI-1; [1]): -11%
Percent Growth (CAKI-1; Log10 Concentration -5.0): 38%
Percent Growth (CAKI-1; Log10 Concentration -6.0, 1 µM): 83%
Percent Growth (CAKI-1; [2]): 107%
Percent Growth (CAKI-1; Log10 Concentration -8.0): 110%
TGI (CAKI-1; PG=0): 60.7 µM
GI50 (CAKI-1; PG=+50): 5.5 µM
CC50 (CAKI-1; read-out: LC-50, PG=-50): > 100 µM
GI50 (SW-620; SW-620): 1.05 µM
CC50 (SW-620; SW-620, read-out: LC-50): > 100 µM
activity at 0.01 µM (SW-620; [3]): 89%
activity at 0.1 µM (SW-620; [3]): 77%
activity at 1 µM (SW-620; [3]): 51%
activity at 10 µM (SW-620; [3]): 18%
activity at 100 µM (SW-620; [3]): -39%
IC (TGI) (SW-620; SW-620, read-out: TGI): 20.4 µM
Percent Growth (NCI-H23; [1]): -48%
Percent Growth (NCI-H23; Log10 Concentration -5.0): -26%
Percent Growth (NCI-H23; Log10 Concentration -6.0, 1 µM): 39%
Percent Growth (NCI-H23; [2]): 97%
Percent Growth (NCI-H23; Log10 Concentration -8.0): 112%
TGI (NCI-H23; PG=0): 4.02 µM
GI50 (NCI-H23; PG=+50): 0.648 µM
CC50 (NCI-H23; read-out: LC-50, PG=-50): > 100 µM
Percent Growth (NCI-H460; [1]): -71%
Percent Growth (NCI-H460; Log10 Concentration -6.0, 1 µM): 67%
Percent Growth (NCI-H460; [2]): 85%
Percent Growth (NCI-H460; Log10 Concentration -8.0): 93%
TGI (NCI-H460; PG=0): 9.4 µM
GI50 (NCI-H460; PG=+50): 1.78 µM
CC50 (NCI-H460; read-out: LC-50, PG=-50): 49.5 µM
Percent Growth (SK-MEL-5; [1]): -53%
Percent Growth (SK-MEL-5; Log10 Concentration -5.0): -53%
Percent Growth (SK-MEL-5; Log10 Concentration -6.0, 1 µM): 75%
Percent Growth (SK-MEL-5; [2]): 94%
Percent Growth (SK-MEL-5; Log10 Concentration -8.0): 99%
TGI (SK-MEL-5; PG=0): 3.85 µM
GI50 (SK-MEL-5; PG=+50): 1.56 µM
CC50 (SK-MEL-5; read-out: LC-50, PG=-50): 9.49 µM
Percent Growth (SNB-19; [1]): 1%
Percent Growth (SNB-19; Log10 Concentration -5.0): 0%
Percent Growth (SNB-19; Log10 Concentration -6.0, 1 µM): 16%
Percent Growth (SNB-19; [2]): 84%
Percent Growth (SNB-19; Log10 Concentration -8.0): 95%
TGI (SNB-19; PG=0): > 100 µM
GI50 (SNB-19; PG=+50): 0.318 µM
CC50 (SNB-19; read-out: LC-50, PG=-50): > 100 µM
GI50 (LXFL 529; LXFL 529): 0.129 µM
CC50 (LXFL 529; LXFL 529, read-out: LC-50): 29.1 µM
activity at 0.01 µM (LXFL 529; [4]): 66%
activity at 0.1 µM (LXFL 529; [4]): 54%
activity at 1 µM (LXFL 529; [4]): 14%
activity at 10 µM (LXFL 529; [4]): -38%
activity at 100 µM (LXFL 529; [4]): -64%
IC (TGI) (LXFL 529; LXFL 529, read-out: TGI): 1.88 µM
Percent Growth (HT29; [1]): -73%
Percent Growth (HT29; Log10 Concentration -5.0): 24%
Percent Growth (HT29; Log10 Concentration -6.0, 1 µM): 88%
Percent Growth (HT29; [2]): 112%
Percent Growth (HT29; Log10 Concentration -8.0): 97%
TGI (HT29; PG=0): 17.8 µM
GI50 (HT29; PG=+50): 3.92 µM
CC50 (HT29; read-out: LC-50, PG=-50): 58 µM
Percent Growth (SF-295; [1]): -51%
Percent Growth (SF-295; Log10 Concentration -5.0): -30%
Percent Growth (SF-295; Log10 Concentration -6.0, 1 µM): 11%
Percent Growth (SF-295; [2]): 65%
Percent Growth (SF-295; Log10 Concentration -8.0): 88%
TGI (SF-295; PG=0): 1.89 µM
GI50 (SF-295; PG=+50): 0.191 µM
CC50 (SF-295; read-out: LC-50, PG=-50): 89.5 µM
Percent Growth (MALME-3M; Log10 Concentration -5.0): -31%
Percent Growth (MALME-3M; Log10 Concentration -6.0, 1 µM): 55%
Percent Growth (MALME-3M; [2]): 110%
Percent Growth (MALME-3M; Log10 Concentration -8.0): 112%
TGI (MALME-3M; PG=0): 4.37 µM
GI50 (MALME-3M; PG=+50): 1.41 µM
CC50 (MALME-3M; read-out: LC-50, PG=-50): > 100 µM
Percent Growth (SK-MEL-28; [1]): -75%
Percent Growth (SK-MEL-28; Log10 Concentration -5.0): 4%
Percent Growth (SK-MEL-28; Log10 Concentration -6.0, 1 µM): 91%
Percent Growth (SK-MEL-28; [2]): 105%
Percent Growth (SK-MEL-28; Log10 Concentration -8.0): 101%
TGI (SK-MEL-28; PG=0): 11.3 µM
GI50 (SK-MEL-28; PG=+50): 2.95 µM
CC50 (SK-MEL-28; read-out: LC-50, PG=-50): 48.6 µM
Percent Growth (SNB-78; [1]): -26%
Percent Growth (SNB-78; Log10 Concentration -5.0): -18%
Percent Growth (SNB-78; Log10 Concentration -6.0, 1 µM): 41%
Percent Growth (SNB-78; [2]): 98%
Percent Growth (SNB-78; Log10 Concentration -8.0): 98%
TGI (SNB-78; PG=0): 4.9 µM
GI50 (SNB-78; PG=+50): 0.683 µM
CC50 (SNB-78; read-out: LC-50, PG=-50): > 100 µM
Percent Growth (HCT-15; [1]): 16%
Percent Growth (HCT-15; Log10 Concentration -5.0): 96%
Percent Growth (HCT-15; Log10 Concentration -6.0, 1 µM): 111%
Percent Growth (HCT-15; [2]): 114%
Percent Growth (HCT-15; Log10 Concentration -8.0): 118%
TGI (HCT-15; PG=0): > 100 µM
GI50 (HCT-15; PG=+50): 37.7 µM
CC50 (HCT-15; read-out: LC-50, PG=-50): > 100 µM
effect against many kinds of cancer (Human tumor cell lines): effective against many kinds of cancer
Percent Growth (SK-MEL-2; [1]): -91%
Percent Growth (SK-MEL-2; Log10 Concentration -5.0): -23%
Percent Growth (SK-MEL-2; Log10 Concentration -6.0, 1 µM): 110%
Percent Growth (SK-MEL-2; [2]): 137%
Percent Growth (SK-MEL-2; Log10 Concentration -8.0): 125%
TGI (SK-MEL-2; PG=0): 6.69 µM
GI50 (SK-MEL-2; PG=+50): 2.83 µM
CC50 (SK-MEL-2; read-out: LC-50, PG=-50): 24.7 µM
